In PubChem BioAssay (NCI):
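The compound was tested at five concentrations on cells cultured in 96-well plates, with a 48-hour exposure period. GI50 marks 50% less growth. TGI is the concentration that stops growth completely.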

Experiments:
Experiment in all cases: inhibition of tumour cell growth, NCI panel, 48 h
786-0 renal = test system: 786-0 renal
A498 renal = test system: A498 renal
A549 NSCLC = test system: A549 NSCLC
ACHN renal = test system: ACHN renal
BT-549 breast = test system: BT-549 breast
CAKI-1 renal = test system: CAKI-1 renal
CCRF-CEM leukemia = test system: CCRF-CEM leukemia
COLO 205 colon = test system: COLO 205 colon
DU-145 prostate = test system: DU-145 prostate
EKVX NSCLC = test system: EKVX NSCLC
HCC-2998 colon = test system: HCC-2998 colon
HCT-116 colon = test system: HCT-116 colon
HCT-15 colon = test system: HCT-15 colon
HL-60(TB) leukemia = test system: HL-60(TB) leukemia
HOP-62 NSCLC = test system: HOP-62 NSCLC
HOP-92 NSCLC = test system: HOP-92 NSCLC
HS 578T breast = test system: HS 578T breast
HT29 colon = test system: HT29 colon
IGROV1 ovarian = test system: IGROV1 ovarian
K-562 leukemia = test system: K-562 leukemia
KM12 colon = test system: KM12 colon
LOX IMVI melanoma = test system: LOX IMVI melanoma
M14 melanoma = test system: M14 melanoma
MALME-3M melanoma = test system: MALME-3M melanoma
MCF7 breast = test system: MCF7 breast
MDA-MB-231 breast = test system: MDA-MB-231 breast
MDA-MB-435 = test system: MDA-MB-435
MOLT-4 leukemia = test system: MOLT-4 leukemia
NCI-H226 lung = test system: NCI-H226 lung
NCI-H23 lung = test system: NCI-H23 lung
NCI-H460 lung = test system: NCI-H460 lung
NCI-H522 lung = test system: NCI-H522 lung
NCI/ADR-RES ovarian = test system: NCI/ADR-RES ovarian
OVCAR-3 ovarian = test system: OVCAR-3 ovarian
OVCAR-4 ovarian = test system: OVCAR-4 ovarian
OVCAR-5 ovarian = test system: OVCAR-5 ovarian
OVCAR-8 ovarian = test system: OVCAR-8 ovarian
PC-3 prostate = test system: PC-3 prostate
RPMI-8226 leukemia = test system: RPMI-8226 leukemia
RXF 393 renal = test system: RXF 393 renal
SF-268 CNS = test system: SF-268 CNS
SF-295 CNS = test system: SF-295 CNS
SF-539 CNS = test system: SF-539 CNS
SK-MEL-2 melanoma = test system: SK-MEL-2 melanoma
SK-MEL-28 melanoma = test system: SK-MEL-28 melanoma
SK-MEL-5 melanoma = test system: SK-MEL-5 melanoma
SK-OV-3 ovarian = test system: SK-OV-3 ovarian
SN12C renal = test system: SN12C renal
SNB-19 CNS = test system: SNB-19 CNS
SNB-75 CNS = test system: SNB-75 CNS
SR leukemia = test system: SR leukemia
SW-620 colon = test system: SW-620 colon
T-47D breast = test system: T-47D breast
U251 CNS = test system: U251 CNS
UACC-257 melanoma = test system: UACC-257 melanoma
UACC-62 melanoma = test system: UACC-62 melanoma
UO-31 renal = test system: UO-31 renal

For COc1cc(C(=O)N/N=C/c2ccc(N(C)C)cc2)cc(OC)c1OC, the GI50 (786-0 renal) was 660 nM, the TGI (786-0 renal) was > 100000 nM and the GI50 (A498 renal) was 172 nM. For the same compound, the TGI (A498 renal) was 799 nM, the GI50 (A549 NSCLC) was 502 nM and the TGI (A549 NSCLC) was > 100000 nM. For the same compound, the GI50 (ACHN renal) was 1280 nM, the TGI (ACHN renal) was > 100000 nM and the GI50 (BT-549 breast) was 696 nM. The TGI (BT-549 breast) was > 26700 nM, the GI50 (CAKI-1 renal) was 3700 nM and the TGI (CAKI-1 renal) was > 100000 nM. For the same compound, the GI50 (CCRF-CEM leukemia) was 344 nM, the TGI (CCRF-CEM leukemia) was > 100000 nM and the GI50 (COLO 205 colon) was 406 nM. It also gave a TGI (COLO 205 colon) of 1640 nM, a GI50 (DU-145 prostate) of 415 nM and a TGI (DU-145 prostate) of 2790 nM. The GI50 (EKVX NSCLC) was > 100000 nM, the TGI (EKVX NSCLC) was > 100000 nM and the GI50 (HCC-2998 colon) was 551 nM. For the same compound, the TGI (HCC-2998 colon) was 19100 nM, the GI50 (HCT-116 colon) was 392 nM and the TGI (HCT-116 colon) was > 100000 nM. The GI50 (HCT-15 colon) was 447 nM, the TGI (HCT-15 colon) was > 100000 nM and the GI50 (HL-60(TB) leukemia) was 303 nM. For the same compound, the GI50 (HOP-62 NSCLC) was 598 nM, the TGI (HOP-62 NSCLC) was > 100000 nM and the GI50 (HOP-92 NSCLC) was 143 nM. For the same compound, the TGI (HOP-92 NSCLC) was 2280 nM, the GI50 (HS 578T breast) was 546 nM and the TGI (HS 578T breast) was > 100000 nM. For the same compound, the GI50 (HT29 colon) was 347 nM, the GI50 (IGROV1 ovarian) was 1150 nM and the TGI (IGROV1 ovarian) was > 100000 nM. The GI50 (K-562 leukemia) was 353 nM, the TGI (K-562 leukemia) was > 100000 nM and the GI50 (KM12 colon) was 428 nM. The TGI (KM12 colon) was 26400 nM, the GI50 (LOX IMVI melanoma) was 736 nM and the TGI (LOX IMVI melanoma) was > 100000 nM. For the same compound, the GI50 (M14 melanoma) was 335 nM, the TGI (M14 melanoma) was > 100000 nM and the GI50 (MALME-3M melanoma) was 582 nM. For the same compound, the TGI (MALME-3M melanoma) was > 100000 nM, the GI50 (MCF7 breast) was 340 nM and the TGI (MCF7 breast) was > 100000 nM. For the same compound, the GI50 (MDA-MB-231 breast) was 1890 nM, the TGI (MDA-MB-231 breast) was > 87900 nM and the GI50 (MDA-MB-435) was 74.3 nM. The TGI (MDA-MB-435) was 307 nM, the GI50 (MOLT-4 leukemia) was 729 nM and the TGI (MOLT-4 leukemia) was 19400 nM. The GI50 (NCI-H226 lung) was 4680 nM, the TGI (NCI-H226 lung) was > 100000 nM and the GI50 (NCI-H23 lung) was 588 nM. The TGI (NCI-H23 lung) was > 100000 nM, the GI50 (NCI-H460 lung) was 376 nM and the TGI (NCI-H460 lung) was 31700 nM. For the same compound, the GI50 (NCI-H522 lung) was 161 nM, the TGI (NCI-H522 lung) was 937 nM and the GI50 (NCI/ADR-RES ovarian) was 337 nM. The TGI (NCI/ADR-RES ovarian) was 1600 nM, the GI50 (OVCAR-3 ovarian) was 259 nM and the TGI (OVCAR-3 ovarian) was 605 nM. For the same compound, the GI50 (OVCAR-4 ovarian) was 824 nM, the TGI (OVCAR-4 ovarian) was > 100000 nM and the GI50 (OVCAR-5 ovarian) was 3290 nM. The TGI (OVCAR-5 ovarian) was > 100000 nM, the GI50 (OVCAR-8 ovarian) was 599 nM and the TGI (OVCAR-8 ovarian) was > 100000 nM. The GI50 (PC-3 prostate) was 422 nM, the TGI (PC-3 prostate) was > 100000 nM and the GI50 (RPMI-8226 leukemia) was 344 nM. For the same compound, the GI50 (RXF 393 renal) was 234 nM, the GI50 (SF-268 CNS) was 1120 nM and the TGI (SF-268 CNS) was > 100000 nM. The GI50 (SF-295 CNS) was 288 nM, the GI50 (SF-539 CNS) was 300 nM and the TGI (SF-539 CNS) was 5250 nM. The GI50 (SK-MEL-2 melanoma) was 1150 nM, the TGI (SK-MEL-2 melanoma) was > 81300 nM and the GI50 (SK-MEL-28 melanoma) was 622 nM. For the same compound, the TGI (SK-MEL-28 melanoma) was > 100000 nM, the GI50 (SK-MEL-5 melanoma) was 198 nM and the TGI (SK-MEL-5 melanoma) was 1160 nM. The GI50 (SK-OV-3 ovarian) was 478 nM, the TGI (SK-OV-3 ovarian) was > 31100 nM and the GI50 (SN12C renal) was 1100 nM. For the same compound, the TGI (SN12C renal) was > 100000 nM, the GI50 (SNB-19 CNS) was 10600 nM and the TGI (SNB-19 CNS) was > 100000 nM. For the same compound, the GI50 (SNB-75 CNS) was 152 nM, the TGI (SNB-75 CNS) was > 100000 nM and the GI50 (SR leukemia) was 287 nM. For the same compound, the GI50 (SW-620 colon) was 424 nM, the TGI (SW-620 colon) was > 100000 nM and the GI50 (T-47D breast) was > 100000 nM. For the same compound, the TGI (T-47D breast) was > 100000 nM, the GI50 (U251 CNS) was 436 nM and the TGI (U251 CNS) was > 100000 nM. The TGI (UACC-257 melanoma) was > 100000 nM, the GI50 (UACC-62 melanoma) was 417 nM and the TGI (UACC-62 melanoma) was > 100000 nM. The GI50 (UO-31 renal) was 656 nM and the TGI (UO-31 renal) was > 100000 nM.
